In ChEMBL document CHEMBL1201862, “PubChem BioAssay data set” (2004):
Values joined by “and” are separate entries in the source; they are usually repeats but may differ in a detail not shown here. Identical values can stand only once.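 Tested at 5 concentrations; 48 h exposure; 96-well plates; endpoints linearly interpolated, else capped at highest concentration. GI50 = concentration required for 50% inhibition of growth.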 Active and inactive are the calls of the source. Rule as the data show it: active = GI50 up to about 1.1 µM and inactive = higher.

Key:
Experiment in all cases: DTP human tumour cell line panel, 48 h
U-251 = test system: U-251
HCC 2998 = test system: HCC 2998
UACC-62 = test system: UACC-62
MOLT-4 = test system: MOLT-4
NCI-H460 = test system: NCI-H460
MDA-MB-231 = test system: MDA-MB-231
HOP-92 = test system: HOP-92
HCT-15 = test system: HCT-15
MCF7 = test system: MCF7
M14 = test system: M14
OVCAR-5 = test system: OVCAR-5
SK-OV-3 = test system: SK-OV-3
SK-MEL-2 = test system: SK-MEL-2
786-0 = test system: 786-0
NCI/ADR-RES = test system: NCI/ADR-RES
MDA-MB-435 = test system: MDA-MB-435
SNB-19 = test system: SNB-19
SF-268 = test system: SF-268
Malme-3M = test system: Malme-3M
Hs-578T = test system: Hs-578T

Structure (SMILES)	GI50 (U-251)	GI50 (HCC 2998)	GI50 (UACC-62)	GI50 (MOLT-4)	GI50 (NCI-H460)	GI50 (MDA-MB-231)	GI50 (HOP-92)	GI50 (HCT-15)	GI50 (MCF7)	GI50 (M14)	GI50 (OVCAR-5)	GI50 (SK-OV-3)	GI50 (SK-MEL-2)	GI50 (786-0)	GI50 (NCI/ADR-RES)	GI50 (MDA-MB-435)	GI50 (SNB-19)	GI50 (SF-268)	GI50 (Malme-3M)	GI50 (Hs-578T)
Cc1ccc(C(=O)N/N=C(\N=N\c2ccccc2)c2ccc(N(C)C)cc2)cc1	> 100 µM (inactive)	90.8 µM (inactive)	67.8 µM (inactive)	> 100 µM (inactive)	> 100 µM (inactive)	> 100 µM (inactive)	> 100 µM (inactive)	> 100 µM	48.8 µM (inactive)	> 100 µM (inactive)	> 100 µM (inactive)	> 100 µM (inactive)	> 100 µM (inactive)	68.2 µM (inactive)	> 100 µM (inactive)	24 µM (inactive)	80.4 µM (inactive)	50.7 µM (inactive)		
CCC(=O)C(C(C)/C=C/CCSc1ccccc1)C(O)CCCCCC(=O)OC (centres undefined)	77.8 µM (inactive)	> 100 µM (inactive)	71.9 µM (inactive)	27.1 µM (inactive)	> 100 µM (inactive)	> 100 µM (inactive)	13.7 µM (inactive)	88.7 µM	66.4 µM (inactive)	> 100 µM (inactive)	> 100 µM (inactive)	> 100 µM (inactive)	> 100 µM (inactive)	> 100 µM (inactive)	99.5 µM (inactive)	> 100 µM (inactive)	> 100 µM (inactive)	> 100 µM (inactive)	> 100 µM (inactive)	
C=CC1(C)CC(=O)C2(O)C(C)(O1)C(OC(C)=O)C(O)C1C(C)(C)CCC(O)C12C (centres undefined)	71 µM (inactive)	> 146 µM (inactive)	69.7 µM (inactive)	28.6 µM (inactive)	89.1 µM (inactive)		> 150 µM (inactive)	> 150 µM	81.7 µM (inactive)	> 100 µM (inactive)	4.84 µM (inactive)	29.7 µM (inactive)	> 143 µM (inactive)	> 100 µM (inactive)	70.6 µM (inactive)		> 150 µM (inactive)	> 128 µM (inactive)	> 150 µM (inactive)	
COC(=O)C1=C(C(=O)NNc2ccccc2)N(c2cccnc2Cl)C(c2ccccc2)=CC1c1ccccc1 (centres undefined)	47.1 µM (inactive)	60.3 µM (inactive)	57.7 µM (inactive)	15.2 µM (inactive)	65.2 µM (inactive)	56.1 µM (inactive)		39.3 µM	34.9 µM (inactive)	33.3 µM (inactive)	> 100 µM (inactive)	> 100 µM (inactive)	22.4 µM (inactive)	86.3 µM (inactive)		29.5 µM (inactive)	> 100 µM (inactive)	88.1 µM (inactive)	27.8 µM (inactive)	> 100 µM (inactive)
O=C(CC(C(=O)c1cccs1)c1ccsc1)c1ccsc1 (centres undefined)	46.3 µM (inactive)	34.1 µM (inactive)	14 µM (inactive)	21 µM (inactive)	23 µM (inactive)	30 µM (inactive)	29.2 µM (inactive)	42.1 µM	32.5 µM (inactive)	16.9 µM (inactive)	> 100 µM (inactive)	32.1 µM (inactive)		46.2 µM (inactive)	24.8 µM (inactive)	20.3 µM (inactive)	50.6 µM (inactive)	51.6 µM (inactive)	78.5 µM (inactive)	20.3 µM (inactive)
CCOC(=O)NC(C(F)(F)F)(C(F)(F)F)P(=O)(OCC)OCC	23.3 µM (inactive)	75.2 µM (inactive)	28 µM (inactive)	4.11 µM (inactive)	31.7 µM (inactive)	> 100 µM (inactive)	81.7 µM (inactive)	28.8 µM	75.2 µM (inactive)	25.9 µM (inactive)	57.1 µM (inactive)	34.9 µM (inactive)		45.2 µM (inactive)	36.7 µM (inactive)	44.1 µM (inactive)	36.1 µM (inactive)	42.6 µM (inactive)	28.3 µM (inactive)	16.9 µM (inactive)
N#CC(C#N)=Cc1ccc2c(c1)OC(Cl)O2 (centres undefined)	23.2 µM (inactive)		22.5 µM (inactive)	29.8 µM (inactive)				19.9 µM	24.4 µM (inactive)	21.4 µM (inactive)	20.9 µM (inactive)	28.5 µM (inactive)	21.9 µM (inactive)	20.3 µM (inactive)	42.1 µM (inactive)	14.3 µM (inactive)	26.4 µM (inactive)	29.4 µM (inactive)	18.1 µM (inactive)	
C=CCc1ccccc1CC1(OCC)OC(=O)c2ccccc21 (centres undefined)	> 100 µM (inactive)	> 100 µM (inactive)	> 100 µM (inactive)	48.8 µM (inactive)	77.6 µM (inactive)	72.8 µM (inactive)	33.8 µM (inactive)	42.3 µM	> 100 µM (inactive)	66.1 µM (inactive)	> 100 µM (inactive)	> 100 µM (inactive)	89.3 µM (inactive)	> 100 µM (inactive)		28.8 µM (inactive)	> 100 µM (inactive)	> 100 µM (inactive)		> 100 µM (inactive)
C=C(C)[C@H]1CC[C@@]2(C)C(C1)[C@H](C)CC[C@@H]2O (some centres undefined)	> 100 µM (inactive)	> 100 µM (inactive)	> 100 µM (inactive)	88.3 µM (inactive)	> 100 µM (inactive)		> 100 µM (inactive)	> 100 µM		> 100 µM (inactive)	> 100 µM (inactive)	> 100 µM (inactive)	> 100 µM (inactive)	> 100 µM (inactive)			> 100 µM (inactive)	> 100 µM (inactive)	> 100 µM (inactive)	
CCCCCCCCCCCCCC(=O)NO	10.7 µM (inactive)	14.4 µM (inactive)	6.68 µM (inactive)	0.492 µM (active)	11.8 µM (inactive)	7.01 µM (inactive)	15.8 µM (inactive)	3.72 µM	3.8 µM (inactive)	15.8 µM (inactive)	17.6 µM (inactive)	30.5 µM (inactive)	23.5 µM (inactive)	7.1 µM (inactive)		25.3 µM (inactive)	23.9 µM (inactive)	7.78 µM (inactive)	32.1 µM (inactive)	
Cc1nc(=O)[nH]c2s/c(=N/C3CCCCC3)n(C3CCCCC3)c(=O)c12	> 100 µM (inactive)	> 100 µM (inactive)	> 100 µM (inactive)	> 100 µM (inactive)		> 100 µM (inactive)	> 100 µM (inactive)	> 100 µM	> 100 µM (inactive)	> 100 µM (inactive)	> 100 µM (inactive)	> 100 µM (inactive)	> 100 µM (inactive)	> 100 µM (inactive)	> 100 µM (inactive)	> 100 µM (inactive)	> 100 µM (inactive)		> 100 µM (inactive)	
CC12CCC(CC1)C(C)(C)O2 [EUCALYPTOL]	29.5 µM (inactive)	26.4 µM (inactive)	10 µM (inactive)	13.7 µM (inactive)			24.3 µM (inactive)	12.1 µM	0.644 µM (active)	> 100 µM (inactive)	64.7 µM (inactive)	57.5 µM (inactive)	47.3 µM (inactive)	> 100 µM (inactive)	45.2 µM (inactive)			42 µM (inactive)	54.6 µM (inactive)	
Cc1ccccc1-c1c(N)nc(N)nc1C(=O)Nc1nccs1	> 100 µM (inactive)	> 100 µM (inactive)	> 100 µM (inactive)	> 100 µM (inactive)	> 100 µM (inactive)		> 100 µM (inactive)	> 100 µM		> 100 µM (inactive)	> 100 µM (inactive)	> 100 µM (inactive)	> 100 µM (inactive)	> 100 µM (inactive)			> 100 µM (inactive)	> 100 µM (inactive)	> 100 µM (inactive)	
Cc1ccc(S(=O)(=O)ON=C2CC(c3ccccc3)N(C)C(c3ccccc3)C2)cc1 (centres undefined)	23.3 µM (inactive) and 21.1 µM (inactive)	16.6 µM (inactive)	16.1 µM (inactive)	17.9 µM (inactive) and 20.6 µM (inactive)	19.2 µM (inactive) and 20.7 µM (inactive)		15.9 µM (inactive) and 15.3 µM (inactive)	16.7 µM and 18.5 µM		19.4 µM (inactive) and 17.2 µM (inactive)	20.8 µM (inactive)	22.5 µM (inactive) and 21.8 µM (inactive)	15 µM (inactive)	21.2 µM (inactive) and 22.9 µM (inactive)			25.8 µM (inactive) and 32.7 µM (inactive)	22.8 µM (inactive) and 23.4 µM (inactive)	25.5 µM (inactive) and 21.1 µM (inactive)	
Cc1n[nH]c(=O)n1C1CCCC1	> 100 µM (inactive)	> 100 µM (inactive)		> 100 µM (inactive)	> 100 µM (inactive)	> 100 µM (inactive)	> 100 µM (inactive)	> 100 µM	> 100 µM (inactive)	> 100 µM (inactive)	> 100 µM (inactive)			> 100 µM (inactive)	> 100 µM (inactive)	> 100 µM (inactive)	> 100 µM (inactive)	> 100 µM (inactive)	> 100 µM (inactive)	> 100 µM (inactive)
CC(=O)OCCN1c2ccccc2Sc2cnccc21	> 10 µM (inactive)	> 10 µM (inactive)	> 10 µM (inactive)	> 10 µM (inactive)	> 10 µM (inactive)	> 10 µM (inactive)	> 10 µM (inactive)	> 10 µM	> 10 µM (inactive)	> 10 µM (inactive)	> 10 µM (inactive)	> 10 µM (inactive)	> 10 µM (inactive)	> 10 µM (inactive)	> 10 µM (inactive)	> 10 µM (inactive)	> 10 µM (inactive)	> 10 µM (inactive)	> 10 µM (inactive)	
